The target in one experiment is T1, GP IIb IIIa (Homo sapiens, UniProt P05106+P08514).
T1 construct: from tissue; host or cells: outdated human platelets
Description: Fibrinogen-GP IIb IIIa Receptor ELISA Binding Assay (Fg/IIbIIIa). Here is the method: Briefly, microtiter plates are coated with fibrinogen (10 mg/ml) and then blocked with TACTS buffer containing 0.5% bovine serum albumin (BSA). […] After another wash a goat anti-mouse IgG conjugated to horseradish peroxidase is added. […] The reaction is stopped with 1N sulfuric acid and the absorbance at 492 nm is recorded. […] Outdated human platelets are washed 3 times with 10 mM tris-HCl, 150 mM NaCl (TBS), 1 mM EDTA, pH 7.5, and centrifuged at 2000×g to pellet cells. […] The supernatant fraction is collected and the supernatant is loaded onto a concanavalin-A column, previously equilibrated in TBS, 1 mM Ca2 Cl2, 0.1% Triton, 0.05% NaN3 and eluted with 0.2M a-methylmannoside. Fractions are pooled and loaded onto a heparin-agarose column. The flowthrough is collected and concentrated on an Amicon YM 30 filter to a volume of approximately 5-10 ml. The concentrate is then applied to an S-300 column (500 ml) and 6 ml fractions are collected. The GP IIb IIIa containing fractions are collected, pooled, and stored at -80° C. […] The precipitate is spun down in appropriate size bottles at 2000×g. The supernatant is decanted and the precipitate resuspended in 150 mM NaCl (approximately 50% of the original volume). […] The suspension is spun down and the precipitate is resuspended in Tris-saline in a minimal volume (approximately 5% of the original volume). Any remaining insoluble material is spun down at 2000 rpm in a Sorval type centrifuge and the fibrinogen supernatant is decanted and dialyzed overnight at 4° C. against Tris-saline. Characterization of the fibrinogen is by the Bradford protein assay, SDS-PAGE, and/or Western blotting using well known standard procedures. Briefly, 96 well plates are coated (Type Nunc 1 MaxisorpTM) with 10 mg/ml purified fibrinogen ([…]), and allowed to stand overnight at 4° C. […] The plates are again washed three times with PBS/Tween and then […] of sample in TNCNT is added. The mixture is incubated for 15 minutes at room temperature on a plate shaker. […] Fifty ml of this diluted GP IIb IIIa is then added to each well and incubated on a plate shaker at room temperature. After one hour, the plates are washed four times with PBS/Tween and 100 ml of a polyclonal or monoclonal antibody specific for GP IIIa such as AP3 (1 mg/ml) (See e.g. […] After a one hour incubation at room temperature on a plate shaker, the samples are washed 4 times with PBS/Tween. […] The color develops within about 3 to 20 minutes and the reaction is stopped with 100 ml 1M H2 SO4. The optical density at 492 nm vs 405 nm is recorded and IC50 values are determined.
In general terms: An ELISA detects its analyte on a solid surface through an enzyme-linked reagent.

The test system of experiment [1] is human platelet rich plasma (PRP). Nature of the experiment: In Vitro Human Platelet Aggregation Assay (PA). It is filed as cell-based. The following applies: Homo sapiens, Platelet. Here is the method: In addition to the GPIIb IIIa ELISA assay, platelet aggregation assays may be performed in human platelet rich plasma (PRP). […] The blood is centrifuged at 160×g for 10 min at 22° C. and then allowed to stand for 5 min after which the PRP is decanted. Platelet poor plasma (PPP) is isolated from the remaining blood after centrifugation at 2000×g for 25 min. The platelet count of the PRP is adjusted to ca. 300,000 per microliter with PPP.
A 225 mL aliquot of PRP plus 25 mL of either a dilution of the test sample or a control (PBS) is incubated for 5 min in a Chrono-log Whole Blood Aggregometer at 25° C. An aggregating agent (collagen, 1 mg/ml; U46619, 100 ng/ml; or ADP, 8 mM) is added and the platelet aggregation recorded.
Platelet aggregation assays are performed in human platelet rich plasma (PRP). […] The blood is centrifuged at 160×g for 10 minutes at 22° C. and allowed to stand for 5 minutes after which the PRP is decanted. Platelet poor plasma (PPP) is isolated from the remaining blood after centrifugation at 2000×g for 25 minutes. The platelet count of the PRP is diluted to about 300,000 platelets per microliter with PPP.
A 225 ml aliquot of PRP plus 25 ml of either a dilution of the test inhibitor sample or a control (PBS) is incubated for 5 minutes in a Chrono-log Whole Blood Aggregometer at 25° C. An aggregating agent (collagen, 1 mg/ml; U46619, 100 ng/ml; or ADP, 17 mM) is added and the transmission is recorded.

[2] abbreviates: Example 29, Cmpd # 1-105, read-out: IC50 Fg/IIbI.
Where [3] appears, read: Example 30, G # table, read-out: IC50 (μM) Fg/IIbIIIa.
[4] abbreviates: citrate, read-out: PA IC50 (μM) (citrate).
[5] abbreviates: Examples 29 and 30, Cmpd # tables, read-out: IC50 (μM) Fg/IIbIIIa.

We go through 25 molecules from patent publication US5250679A, “Nonpeptidyl platelet aggregation inhibitors having specificity for the GPIIb III receptor” (Genentech, Inc., priority 1992, dated 1993).

Structures are written as SMILES. Where a name gives a salt, the structure may show the parent alone. Read-outs that look alike come from different tables or passages of the source.

T1 sequence (P08514 32-887 limits assumed): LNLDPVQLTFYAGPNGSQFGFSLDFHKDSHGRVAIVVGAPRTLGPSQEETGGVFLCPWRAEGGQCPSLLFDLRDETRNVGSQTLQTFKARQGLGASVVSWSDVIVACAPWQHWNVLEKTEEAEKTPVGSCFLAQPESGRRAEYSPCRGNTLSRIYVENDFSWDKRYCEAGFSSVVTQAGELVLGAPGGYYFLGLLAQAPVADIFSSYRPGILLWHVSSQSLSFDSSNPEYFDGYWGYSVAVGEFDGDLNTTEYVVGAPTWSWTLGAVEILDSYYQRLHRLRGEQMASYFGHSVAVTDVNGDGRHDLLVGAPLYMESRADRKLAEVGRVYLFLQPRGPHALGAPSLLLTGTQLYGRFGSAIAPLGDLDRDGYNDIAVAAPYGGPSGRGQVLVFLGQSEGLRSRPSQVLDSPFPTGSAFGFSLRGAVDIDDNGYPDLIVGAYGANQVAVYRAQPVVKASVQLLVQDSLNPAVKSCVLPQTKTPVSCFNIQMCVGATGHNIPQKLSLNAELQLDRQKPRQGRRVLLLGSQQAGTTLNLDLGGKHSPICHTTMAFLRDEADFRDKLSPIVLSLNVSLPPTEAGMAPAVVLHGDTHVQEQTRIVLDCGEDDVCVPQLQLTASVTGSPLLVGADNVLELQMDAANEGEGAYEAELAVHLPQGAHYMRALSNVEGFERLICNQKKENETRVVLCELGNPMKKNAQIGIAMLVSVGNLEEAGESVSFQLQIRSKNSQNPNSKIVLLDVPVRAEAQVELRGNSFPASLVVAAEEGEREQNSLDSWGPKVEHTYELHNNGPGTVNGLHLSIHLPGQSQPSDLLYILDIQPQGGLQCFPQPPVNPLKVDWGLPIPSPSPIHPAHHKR
T1 sequence (P08514 891-1039 partner limits assumed): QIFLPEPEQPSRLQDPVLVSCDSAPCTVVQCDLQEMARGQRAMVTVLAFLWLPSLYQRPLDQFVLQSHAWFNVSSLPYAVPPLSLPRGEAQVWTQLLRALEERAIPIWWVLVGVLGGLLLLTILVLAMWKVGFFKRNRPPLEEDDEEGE
T1 sequence (P05106 27-788): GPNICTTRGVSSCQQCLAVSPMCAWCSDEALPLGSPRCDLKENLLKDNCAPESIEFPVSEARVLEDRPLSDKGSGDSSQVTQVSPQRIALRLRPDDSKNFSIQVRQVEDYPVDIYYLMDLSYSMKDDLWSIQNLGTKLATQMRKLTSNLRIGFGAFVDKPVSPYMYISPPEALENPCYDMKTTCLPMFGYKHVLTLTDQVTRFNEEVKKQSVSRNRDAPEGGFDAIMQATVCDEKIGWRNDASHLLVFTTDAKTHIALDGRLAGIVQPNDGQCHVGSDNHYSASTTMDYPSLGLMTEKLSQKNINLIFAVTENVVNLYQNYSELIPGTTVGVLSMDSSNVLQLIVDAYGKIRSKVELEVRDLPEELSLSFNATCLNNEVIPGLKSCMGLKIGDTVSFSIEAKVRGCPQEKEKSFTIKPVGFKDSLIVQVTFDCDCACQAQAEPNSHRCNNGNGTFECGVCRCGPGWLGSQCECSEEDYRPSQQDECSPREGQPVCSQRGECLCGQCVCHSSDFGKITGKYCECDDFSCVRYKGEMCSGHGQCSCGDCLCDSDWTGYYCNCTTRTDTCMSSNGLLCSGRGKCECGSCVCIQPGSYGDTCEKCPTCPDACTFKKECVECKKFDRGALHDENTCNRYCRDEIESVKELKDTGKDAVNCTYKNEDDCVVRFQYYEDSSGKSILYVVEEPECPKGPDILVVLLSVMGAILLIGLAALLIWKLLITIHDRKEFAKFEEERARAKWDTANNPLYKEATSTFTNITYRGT

On to `CC(CC(=O)O)N1CC(=O)N(C)c2ccc(C#CCCCNC(=N)N)cc2C1=O` (centres unmarked) [Cmpd 38, 1-methyl-4-(2-carboxy-1-methylethyl)-7-(5-guanidino-1-pentynyl)-3,4-dihydro-1H-1,4, benzodiazepine-2,5-dione trifluroacetate], for which the IC50 is 0.018 µM at GP IIb IIIa (setting [2]), 0.018 µM on GP IIb IIIa (setting [3]) and 1.19 µM in experiment [1] (setting [4]).

Consider `O=C(O)CCN1CC(=O)N(Cc2ccc(Cl)cc2)c2ccc(-c3ccc(N4CCNCC4)cc3)cc2C1=O` [Cmpd 73, 1-(p-chlorobenzyl)-7-[4-(1-piperazine)phenyl]-4-(2-carboxyethyl)-3,4-dihydro-1H-1,4-benzodiazpine-2,4-dione trifluoroacetate], for which the IC50 at GP IIb IIIa (setting [2]) worked out at 0.007 µM; on GP IIb IIIa (setting [3]), 0.007 µM; in experiment [1] (setting [4]) it was 0.67 µM; in experiment [1] (heparin, read-out: PA IC50 (μM) (heparin)), 2.3 µM.

With `N=C(N)NCCCCCc1ccc2c(c1)C(=O)N(CCC(=O)O)CC(=O)N2Cc1ccc2ccccc2c1` [Cmpd 75, 1-(2-napthyl)methyl-4-(2-carboxyethyl)-7-(5-guanidinopentyl)-3,4-dihydro-1H-1,4-benzodiazepine-2,5-dione trifluoroacetate], the values for the IC50 (at GP IIb IIIa (setting [2]); at GP IIb IIIa (setting [3]); in experiment [1] (setting [4])) were 0.011 µM, 0.011 µM and 6.88 µM, respectively.

In the case of `NCCCCCc1ccc2c(c1)C(=O)N(CCC(=O)O)CC(=O)N2Cc1ccc2ccccc2c1` [Cmpd 76, 1-(2-napthyl)methyl-4-(2-carboxyethyl)-7-(5-aminopentyl)-3,4-dihydro-1H-1,4-benzodiazepine-2,5-dione trifluoroacetate], the IC50 on GP IIb IIIa (setting [2]) was 0.077 µM; on GP IIb IIIa (setting [3]), 0.077 µM; in experiment [1] (setting [4]), 28.9 µM.

For the molecule `N=C(N)NCCCCCc1ccc2c(c1)C(=O)N(CCC(=O)O)CC(=O)N2Cc1cccc2ccccc12` [Cmpd 77, 1-(1-napthyl)methyl-4-(2-carboxyethyl)-7-(5-guanidinopentyl)-3,4-dihydro-1H-1,4-benzodiazepine-2,5-dione trifluoroacetate], the IC50 came out at 0.008 µM at GP IIb IIIa (setting [2]), 0.008 µM on GP IIb IIIa (setting [3]) and 2.65 µM in experiment [1] (setting [4]).

On to `NCCCCCc1ccc2c(c1)C(=O)N(CCC(=O)O)CC(=O)N2Cc1cccc2ccccc12` [Cmpd 78, 1-(1-napthyl)methyl-4-(2-carboxyethyl)-7-(5-aminopentyl)-3,4-dihydro-1H-1,4-benzodiazepine-2,5-dione trifluoroacetate], for which the IC50 turned out to be 0.066 µM on GP IIb IIIa (setting [2]), 0.066 µM on GP IIb IIIa (setting [3]) and 6.53 µM in experiment [1] (setting [4]).

For the molecule `COc1ccc(CN2C(=O)CN(CCC(=O)O)C(=O)c3cc(CCCCCCN)ccc32)cc1` [Cmpd 81, 1-(p-methoxybenzyl)-4-(2-carboxyethyl)-7-(6-aminohexyl)-3,4-dihydro-1H-1,4-benzodiazepine-2,5-dione trifluoroacetate], the IC50 was found to be 0.023 µM on GP IIb IIIa (setting [2]), 0.023 µM on GP IIb IIIa (setting [3]) and 0.98 µM in experiment [1] (setting [4]).

Take `NCCCCCCc1ccc2c(c1)C(=O)N(CCC(=O)O)CC(=O)N2Cc1cccc2ccccc12` [Cmpd 82, 1-(1-napthyl)methyl-4-(2-carboxyethyl)-7-(6-aminohexyl)-3,4-dihydro-1H-1,4-benzodiazepine-2,5-dione trifluoroacetate]: the IC50 at GP IIb IIIa (setting [2]) turned out to be 0.015 µM; at GP IIb IIIa (setting [3]) it was 0.015 µM; in experiment [1] (setting [4]), 0.76 µM.

For `NCCCCCCc1ccc2c(c1)C(=O)N(CCC(=O)O)CC(=O)N2Cc1ccc2ccccc2c1` [Cmpd 83, 1-(2-napthyl)methyl-4-(2-carboxyethyl)-7-(6-aminohexyl)-3,4-dihydro-1H-1,4-benzodiazepine-2,5-dione trifluoroacetate], the IC50 at GP IIb IIIa (setting [2]) came to 0.017 µM; on GP IIb IIIa (setting [3]) it was 0.017 µM; in experiment [1] (setting [4]), 3.19 µM.

`COc1ccc(CN2C(=O)CN(CCC(=O)O)C(=O)c3cc(CCCCCCNC(=N)N)ccc32)cc1` [Cmpd 84, 1-(p-methoxybenzyl)-4-(2-carboxyethyl)-7-(6-guanidinohexyl)-3,4-dihydro-1H-1,4-benzodiazepine-2,5-dione trifluoroacetate]: the IC50 at GP IIb IIIa (setting [2]) was 0.024 µM; at GP IIb IIIa (setting [3]), 0.024 µM; in experiment [1] (setting [4]), 10.4 µM.

Turning to `N=C(N)NCCCCCCc1ccc2c(c1)C(=O)N(CCC(=O)O)CC(=O)N2Cc1cccc2ccccc12` [Cmpd 85, 1-(1-napthyl)methyl-4-(2-carboxyethyl)-7-(6-guanidinohexyl)-3,4-dihydro-1H-1,4-benzodiazepine-2,5-dione trifluoroacetate], the figures for the IC50 (at GP IIb IIIa (setting [2]); on GP IIb IIIa (setting [3]); in experiment [1] (setting [4])) were 0.014 µM, 0.014 µM and 6.2 µM, respectively.

Regarding `NCCCCCCc1ccc2c(c1)C(=O)N(CCC(=O)O)CC(=O)N2Cc1cccc(NC(=O)CCCN)c1` [Cmpd 112, 1-[3-(N-(4-aminobuturyl))aminophenyl]methyl-4-(2-carboxyethyl)-7-(6-aminohexyl)-3,4-dihydro-1H-1,4-benzodiazapine-2,5-dione bistrifluoroacetate], the IC50 at GP IIb IIIa (setting [3]) is 0.008 µM; at GP IIb IIIa (setting [5]), 0.008 µM; in experiment [1] (setting [4]), 0.4 µM.

With `N=C(N)NCCCCCCCCOc1ccc2c(c1)C(=O)N(CCC(=O)O)CCC2` [Cmpd 152, 2-(2-carboxyethyl)-8-(8-guanadinooctyloxy)-2,3,4,5-tetrahydro-1H-2-benzazepin-1-one trifluoroacetate], the IC50 on GP IIb IIIa (setting [5]) was 50 µM.

For the molecule `NCCCC#Cc1ccc2c(c1)C(=O)N(CCC(=O)O)CCC2` [Cmpd 153, 2-(2-carboxyethyl)-8-(5-aminopentynyl)-2,3,4,5-tetrahydro-1H-2-benzazepin-1-one trifluoroacetate], the IC50 on GP IIb IIIa (setting [5]) was greater than 100 µM.

As to `N=C(N)NCCCC#Cc1ccc2c(c1)C(=O)N(CCC(=O)O)CCC2` [Cmpd 154, 2-(2-carboxyethyl)-8-(5-guanidinopentynyl)-2,3,4,5-tetrahydro-1H-2-benzazepin-1-one trifluoroacetate], the IC50 on GP IIb IIIa (setting [5]) was determined as 20 µM.

Turning to `NCCCCCc1ccc2c(c1)C(=O)N(CCC(=O)O)CCC2` [Cmpd 155], the IC50 on GP IIb IIIa (setting [5]) is greater than 100 µM.

For `N=C(N)NCCCCCc1ccc2c(c1)C(=O)N(CCC(=O)O)CCC2` [Cmpd 156], the IC50 at GP IIb IIIa (setting [5]) is roughly 100 µM.

Regarding `N=C(N)c1ccc(COc2ccc3c(c2)C(=O)N(CCC(=O)O)CCC3)cc1` [Cmpd 157, 2-(2-carboxyethyl)-8-(4-amidinobenzyloxy)-2,3,4,5-tetrahydro-1H-2-benzazepin-1-one trifluoroacetate], the IC50 on GP IIb IIIa (setting [5]) came to 0.137 µM.

Regarding `N=C(N)NCCCc1cccc(C(=O)NCCC(=O)O)c1` [Cmpd 158], the IC50 on GP IIb IIIa (setting [5]) was determined as 2.3 µM.

Regarding `N=C(N)NCC#Cc1cccc(C(=O)NCCC(=O)O)c1` [Cmpd 159], the IC50 at GP IIb IIIa (setting [5]) amounted to 0.552 µM.

`N=C(N)NCCC#Cc1cccc(C(=O)NCCC(=O)O)c1` [Cmpd 160]: the IC50 on GP IIb IIIa (setting [5]) came out at 1.01 µM.

Turning to `NCCCC#Cc1cccc(C(=O)NCCC(=O)O)c1` [Cmpd 161], the IC50 on GP IIb IIIa (setting [5]) is 9 µM.

With `N=C(N)NCCCC#Cc1cccc(C(=O)NCCC(=O)O)c1` [Cmpd 162], at GP IIb IIIa (setting [5]), the IC50 came to 1 µM.

Consider `NCCCCC#Cc1cccc(C(=O)NCCC(=O)O)c1` [Cmpd 163], for which the IC50 on GP IIb IIIa (setting [5]) was 2.7 µM.

Regarding `N=C(N)NCCCCC#Cc1cccc(C(=O)NCCC(=O)O)c1` [Cmpd 164], the IC50 at GP IIb IIIa (setting [5]) was 3.4 µM.
